Each structure is given as a SMILES string.

The target in this experiment is T1, GlyT1 (Homo sapiens, UniProt P48067).
T1 construct: expressed in transfected cells
T1 sequence (P48067 1-706): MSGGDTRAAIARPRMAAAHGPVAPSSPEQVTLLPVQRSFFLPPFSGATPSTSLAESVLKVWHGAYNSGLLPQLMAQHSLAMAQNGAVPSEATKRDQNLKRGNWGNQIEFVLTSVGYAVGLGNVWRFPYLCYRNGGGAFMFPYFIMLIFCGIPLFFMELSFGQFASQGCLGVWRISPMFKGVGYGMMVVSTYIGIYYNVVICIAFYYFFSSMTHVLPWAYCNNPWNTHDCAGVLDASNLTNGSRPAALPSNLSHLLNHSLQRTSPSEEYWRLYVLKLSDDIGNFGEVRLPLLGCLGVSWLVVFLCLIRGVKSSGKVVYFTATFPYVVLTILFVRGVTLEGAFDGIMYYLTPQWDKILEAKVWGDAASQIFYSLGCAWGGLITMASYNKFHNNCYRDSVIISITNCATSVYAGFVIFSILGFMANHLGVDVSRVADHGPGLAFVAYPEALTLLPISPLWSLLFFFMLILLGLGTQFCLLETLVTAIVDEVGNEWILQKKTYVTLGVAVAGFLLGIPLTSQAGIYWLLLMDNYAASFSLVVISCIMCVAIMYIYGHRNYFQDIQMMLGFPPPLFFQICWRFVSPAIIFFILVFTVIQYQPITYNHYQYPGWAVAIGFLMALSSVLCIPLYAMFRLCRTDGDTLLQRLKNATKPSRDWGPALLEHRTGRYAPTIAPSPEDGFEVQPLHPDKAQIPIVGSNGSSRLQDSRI
The experiment is described as follows: Glycine Transporter 1 (GlyT1) uptake assay, scintillation proximity assay of [14C]-glycine uptake. In kind it is cell-based. Conditions: SPA, four parameter logistic fit, read-out: GlyT1 (pIC50) (converted). The gist of the method:
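[14C]-glycine uptake read by scintillation proximity on a plate counter. IC50 from four-parameter logistic fit of dose-response data.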
A general note: SPA uses beads or plates that emit light when radiolabelled molecules are held near them.
In the case of `CC(C)Oc1ccc(S(C)(=O)=O)cc1C(=O)N1Cc2cn(-c3cc(F)ccc3F)nc2C1` [Example 129, 2-(2 5-Difluorophenyl)-5-[5-methanesulfonyl-2-(propan-2-yloxy)benzoyl]-2H 4H 5H 6H-pyrrolo[3,4-c]pyrazole], the IC50 was below 0.1 µM.
Next, `Cc1ccc(F)c(-n2cc3c(n2)CN(C(=O)c2cc(S(C)(=O)=O)ccc2OC(C)C)C3)c1` [Example 130, 2-(2-Fluoro-5-methylphenyl)-5-[5-methanesulfonyl-2-(propan-2-yloxy)benzoyl]-2H 4H 5H 6H-pyrrolo[3,4-c]pyrazole]: below 0.1 µM; `CCc1cc(-n2cc3c(n2)CN(C(=O)c2cc(S(C)(=O)=O)ccc2N2CCC(F)(F)CC2)C3)ccn1` [Example 131, 4-{5-[2-(4 4-Difluoropiperidin-1-yl)-5-methanesulfonylbenzoyl]-2H 4H 5H 6H-pyrrolo[3,4-c]pyrazol-2-yl}-2-ethylpyridine]: below 0.1 µM; `CCc1cc(-n2cc3c(n2)CN(C(=O)c2cc(S(=O)(=O)CC)ccc2N2CCC(F)(F)CC2)C3)ccn1` [Example 132, 4-{5-[2-(4 4-Difluoropiperidin-1-yl)-5-(ethanesulfonyl)benzoyl]-2H 4H 5H 6H-pyrrolo[3,4-c]pyrazol-2-yl}-2-ethylpyridine]: below 0.1 µM.
Regarding `CCc1cc(-n2cc3c(n2)CN(C(=O)c2cc(S(C)(=O)=O)ccc2O[C@@H](C)C(F)(F)F)C3)ccn1` [Example 133, 2-Ethyl-4-[5-(5-methanesulfonyl-2-{[(2S)-1 1 1-trifluoropropan-2-yl]oxy}benzoyl)-2H 4H 5H 6H-pyrrolo[3,4-c]pyrazol-2-yl]pyridine], the IC50 was below 0.1 µM.
For the compound `CCc1cc(-n2cc3c(n2)CN(C(=O)c2cc(S(=O)(=O)CC)ccc2O[C@@H](C)C(F)(F)F)C3)ccn1` [Example 134, 4-{5-[5-(Ethanesulfonyl)-2-{[(2S)-1 1 1-trifluoropropan-2-yl]oxy}benzoyl]-2H 4H 5H 6H-pyrrolo[3,4-c]pyrazol-2-yl}-2-ethylpyridine], the IC50 is below 0.1 µM.
Regarding `CCS(=O)(=O)c1ccc(N2CCC(F)(F)CC2)c(C(=O)N2Cc3cn(-c4ccc(F)cn4)nc3C2)c1` [Example 135, 2-{5-[2-(4 4-Difluoropiperidin-1-yl)-5-(ethanesulfonyl)benzoyl]-2H 4H 5H 6H-pyrrolo[3,4-c]pyrazol-2-yl}-5-fluoropyridine], the IC50 is below 0.1 µM.
To `Cc1ccc(F)c(-n2cc3c(n2)CN(C(=O)c2cc(S(C)(=O)=O)ccc2OCC2CC2)C3)c1` [Example 136, 5-[2-(Cyclopropylmethoxy)-5-methanesulfonylbenzoyl]-2-(2-fluoro-5-methylphenyl)-2H 4H 5H 6H-pyrrolo[3,4-c]pyrazole] belongs below 0.1 µM; to `CS(=O)(=O)c1ccc(OCC2CC2)c(C(=O)N2Cc3cn(-c4cc(F)ccc4F)nc3C2)c1` [Example 137, 5-[2-(Cyclopropylmethoxy)-5-methanesulfonylbenzoyl]-2-(2 5-difluorophenyl)-2H 4H 5H 6H-pyrrolo[3,4-c]pyrazole], below 0.1 µM.
Take `CS(=O)(=O)c1ccc(OCC2CC2)c(C(=O)N2Cc3cn(-c4cccc(C(F)(F)F)c4F)nc3C2)c1` [Example 138, 5-[2-(Cyclopropylmethoxy)-5-methanesulfonylbenzoyl]-2-[2-fluoro-3-(trifluoromethyl)phenyl]-2H 4H 5H 6H-pyrrolo[3,4-c]pyrazole]: the IC50 is below 0.1 µM.
With `Cc1cccc(-n2cc3c(n2)CN(C(=O)c2cc(S(C)(=O)=O)ccc2OCC2CC2)C3)c1F` [Example 139, 5-[2-(Cyclopropylmethoxy)-5-methanesulfonylbenzoyl]-2-(2-fluoro-3-methylphenyl)-2H 4H 5H 6H-pyrrolo[3,4-c]pyrazole], the IC50 is below 0.1 µM.
Next, `Cc1cccc(-n2cc3c(n2)CN(C(=O)c2cc(S(C)(=O)=O)ccc2OCC2CC2)C3)c1` [Example 140, 5-[2-(Cyclopropylmethoxy)-5-methanesulfonylbenzoyl]-2-(3-methylphenyl)-2H 4H 5H 6H-pyrrolo[3,4-c]pyrazole]: below 0.1 µM.
As to `CS(=O)(=O)c1ccc(-c2cccc(F)c2)c(C(=O)N2Cc3cn(-c4cccnc4)nc3C2)c1` [Example 141, 3-{5-[2-(3-Fluorophenyl)-5-methanesulfonylbenzoyl]-2H 4H 5H 6H-pyrrolo[3,4-c]pyrazol-2-yl}pyridine], the IC50 is below 0.1 µM.
`CS(=O)(=O)c1ccc(-c2cccc(F)c2)c(C(=O)N2Cc3cn(-c4ccncc4)nc3C2)c1` [Example 142, 4-{5-[2-(3-Fluorophenyl)-5-methanesulfonylbenzoyl]-2H 4H 5H 6H-pyrrolo[3,4-c]pyrazol-2-yl}pyridine]: the IC50 was below 0.1 µM.
For `CCc1cc(-n2cc3c(n2)CN(C(=O)c2cc(S(C)(=O)=O)ccc2-c2cccc(F)c2)C3)ccn1` [Example 143, 2-Ethyl-4-{5-[2-(3-fluorophenyl)-5-methanesulfonylbenzoyl]-2H 4H 5H 6H-pyrrolo[3,4-c]pyrazol-2-yl}pyridine], the IC50 was below 0.1 µM.
To `C[C@H](Oc1ccc(S(=O)(=O)CC2CC2)cc1C(=O)N1Cc2cn(-c3ccccc3)nc2C1)C(F)(F)F` [Example 144, 5-(5-Cyclopropylmethanesulfonyl-2-{[(2S)-1 1 1-trifluoropropan-2-yl]oxy}benzoyl)-2-phenyl-2H 4H 5H 6H-pyrrolo[3,4-c]pyrazole] belongs above 10 µM; to `Cc1cccc(-n2cc3c(n2)CN(C(=O)c2cc(S(=O)(=O)CC4CC4)ccc2O[C@@H](C)C(F)(F)F)C3)c1` [Example 145, 5-(5-Cyclopropylmethanesulfonyl-2-{[(2S)-1 1 1-trifluoropropan-2-yl]oxy}benzoyl)-2-(3-methylphenyl)-2H 4H 5H 6H-pyrrolo[3,4-c]pyrazole], 1 to 10 µM; to `C[C@H](Oc1ccc(S(C)(=O)=O)cc1C(=O)N1Cc2cn(-c3cccc(Cl)c3F)nc2C1)C(F)(F)F` [Example 146, 2-(3-Chloro-2-fluorophenyl)-5-(5-methanesulfonyl-2-{[(2S)-1 1 1-trifluoropropan-2-yl]oxy}benzoyl)-2H 4H 5H 6H-pyrrolo[3,4-c]pyrazole], below 0.1 µM.
Consider `C[C@H](Oc1ccc(S(C)(=O)=O)cc1C(=O)N1Cc2cn(-c3cccc(F)c3Cl)nc2C1)C(F)(F)F` [Example 147, 2-(2-Chloro-3-fluorophenyl)-5-(5-methanesulfonyl-2-{[(2S)-1 1 1-trifluoropropan-2-yl]oxy}benzoyl)-2H 4H 5H 6H-pyrrolo[3,4-c]pyrazole], for which the IC50 was below 0.1 µM.
For the compound `CC(C)Oc1ccc(S(C)(=O)=O)cc1C(=O)N1Cc2cn(-c3cccc(Cl)c3F)nc2C1` [Example 148, 2-(3-Chloro-2-fluorophenyl)-5-[5-methanesulfonyl-2-(propan-2-yloxy)benzoyl]-2H 4H 5H 6H-pyrrolo[3,4-c]pyrazole], the IC50 is below 0.1 µM.
For `CC(C)Oc1ccc(S(C)(=O)=O)cc1C(=O)N1Cc2cn(-c3cccc(F)c3Cl)nc2C1` [Example 149, 2-(2-Chloro-3-fluorophenyl)-5-[5-methanesulfonyl-2-(propan-2-yloxy)benzoyl]-2H 4H 5H 6H-pyrrolo[3,4-c]pyrazole], the IC50 was below 0.1 µM.
On to `CCS(=O)(=O)c1ccc(O[C@@H](C)C(F)(F)F)c(C(=O)N2Cc3cn(-c4cccc(Cl)c4F)nc3C2)c1` [Example 150, 2-(3-Chloro-2-fluorophenyl)-5-[5-(ethanesulfonyl)-2-{[(2S)-1 1 1-trifluoropropan-2-yl]oxy}benzoyl]-2H 4H 5H 6H-pyrrolo[3,4-c]pyrazole], for which the IC50 was below 0.1 µM.
Turning to `CCS(=O)(=O)c1ccc(O[C@@H](C)C(F)(F)F)c(C(=O)N2Cc3cn(-c4cccc(F)c4Cl)nc3C2)c1` [Example 151, 2-(2-Chloro-3-fluorophenyl)-5-[5-(ethanesulfonyl)-2-{[(2S)-1 1 1-trifluoropropan-2-yl]oxy}benzoyl]-2H 4H 5H 6H-pyrrolo[3,4-c]pyrazole], the IC50 was below 0.1 µM.
With `CS(=O)(=O)c1ccc(-c2cccc(F)c2)c(C(=O)N2Cc3cn(-c4ccccn4)nc3C2)c1` [Example 152, 2-{5-[2-(3-Fluorophenyl)-5-methanesulfonylbenzoyl]-2H 4H 5H 6H-pyrrolo[3,4-c]pyrazol-2-yl}pyridine], the IC50 is below 0.1 µM.
`CC(Oc1ccc(C#N)c(Cl)c1C(=O)N1CCc2nn(-c3cncc(F)c3)cc2C1)C(F)(F)F` (centres unmarked) [Example 153, 2-Chloro-3-[2-(5-fluoropyridin-3-yl)-2H 4H 5H 6H 7H-pyrazolo[4,3-c]pyridine-5-carbonyl]-4-[(1 1 1-trifluoropropan-2-yl)oxy]benzonitrile]: the IC50 was below 0.1 µM.
Consider `COc1c(C#N)ccc(OC(C)C(F)(F)F)c1C(=O)N1CCc2nn(-c3cncc(F)c3)cc2C1` (centres unmarked) [Example 154, 3-[2-(5-Fluoropyridin-3-yl)-2H 4H 5H 6H 7H-pyrazolo[4,3-c]pyridine-5-carbonyl]-2-methoxy-4-[(1 1 1-trifluoropropan-2-yl)oxy]benzonitrile], for which the IC50 was below 0.1 µM.

For the origin of these results see patent US9708334B2, “Substituted 2,4,5,6-tetrahydropyrrolo[3,4-c]pyrazole and 4,5,6,7-tetrahydro-2H-pyrazolo[4,3-c]pyridine compounds as GlyT1 inhibitors” (DART NEUROSCIENCE (CAYMAN) LTD., priority 2014, dated 2017).
